Assay results taken from PubChem BioAssay AID248 (DTP/NCI, 2004).
Where “and” joins values, the source holds several entries; their conditions need not be identical. Identical values can stand only once. Toxic doses and inconclusive results are not listed. Square brackets hold non-standard residues; d marks the D form. Peptide text beside a SMILES is read from it. * marks the point of attachment. ξ: configuration not given here. Cbz = O=C(OCc1ccccc1)*; OBn = c1ccc(CO*)cc1; ξP = O=C(O)C1CCCN1

Tested on: L1210 leukemia ip in BDF1 mice, survival T/C
Assay: NCI In Vivo Anticancer Drug Screen. Data for tumor model L1210 Leukemia (intraperitoneal) in B6D2F1 (BDF1) mice
Conditions: endpoint: mean survival time, higher = longer survival
Method in brief: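 In this screen, tumor-bearing mice given compound are compared to those given vehicle, and their survival values are reported as a treated-to-control quotient.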

[1] = dose: 100.0 mg/kg/injection, schedule: Q04DX003 (ip), vehicle: saline with Tween-80
[2] = dose: 200.0 mg/kg/injection, schedule: Q04DX003 (ip), vehicle: saline with Tween-80
[3] = dose: 400.0 mg/kg/injection, schedule: Q04DX003 (ip), vehicle: saline with Tween-80
[4] = dose: 75.0 mg/kg/injection, schedule: Q01DX001 (ip), vehicle: saline
[5] = dose: 150.0 mg/kg/injection, schedule: Q01DX001 (ip), vehicle: saline
[6] = dose: 100.0 mg/kg/injection, schedule: Q01DX009 (ip), vehicle: Klucel (hydroxypropylcellulose) (HPC)
[7] = dose: 100.0 mg/kg/injection, schedule: Q04DX003 (ip), vehicle: Klucel (hydroxypropylcellulose) (HPC)
[8] = dose: 200.0 mg/kg/injection, schedule: Q01DX009 (ip), vehicle: Klucel (hydroxypropylcellulose) (HPC)
[9] = dose: 200.0 mg/kg/injection, schedule: Q04DX003 (ip), vehicle: Klucel (hydroxypropylcellulose) (HPC)
[10] = dose: 400.0 mg/kg/injection, schedule: Q04DX003 (ip), vehicle: Klucel (hydroxypropylcellulose) (HPC)
[11] = dose: 100.0 mg/kg/injection, schedule: Q04DX003 (ip), vehicle: saline
[12] = dose: 200.0 mg/kg/injection, schedule: Q04DX003 (ip), vehicle: saline
[13] = dose: 100.0 mg/kg/injection, schedule: Q01DX001 (ip), vehicle: carboxymethylcellulose (CMC)
[14] = dose: 200.0 mg/kg/injection, schedule: Q01DX001 (ip), vehicle: carboxymethylcellulose (CMC)
[15] = dose: 400.0 mg/kg/injection, schedule: Q01DX001 (ip), vehicle: carboxymethylcellulose (CMC)
[16] = dose: 100.0 mg/kg/injection, schedule: Q04DX002 (ip), vehicle: Klucel (hydroxypropylcellulose) (HPC)
[17] = dose: 200.0 mg/kg/injection, schedule: Q04DX002 (ip), vehicle: Klucel (hydroxypropylcellulose) (HPC)
[18] = dose: 100.0 mg/kg/injection, schedule: Q01DX001 (ip), vehicle: saline
[19] = dose: 200.0 mg/kg/injection, schedule: Q01DX001 (ip), vehicle: saline
[20] = dose: 400.0 mg/kg/injection, schedule: Q01DX001 (ip), vehicle: saline
[21] = dose: 400.0 mg/kg/injection, schedule: Q04DX003 (ip), vehicle: saline
[22] = dose: 50.0 mg/kg/injection, schedule: Q01DX009 (ip), vehicle: saline
[23] = dose: 100.0 mg/kg/injection, schedule: Q01DX009 (ip), vehicle: saline
[24] = dose: 200.0 mg/kg/injection, schedule: Q01DX009 (ip), vehicle: saline

COC(=O)CNC(=O)C(C)NC(=O)OCc1ccccc1 (stereo not drawn)
T/C [1]: 102 % of control | T/C [2]: 98 % of control | T/C [3]: 100 % of control

CSc1ccnc2[nH]ncc12
T/C (dose: 100.0 mg/kg/injection, schedule: Q04DX002 (ip), vehicle: DMSO): 94 % of control | T/C (dose: 200.0 mg/kg/injection, schedule: Q04DX002 (ip), vehicle: DMSO): 105 % of control

CN=C(N)c1ccc(NC(=O)/C=C\c2ccc(C(=O)Nc3ccc(C(N)=NC)cc3)cc2)cc1
T/C (dose: 1.88 mg/kg/injection, schedule: Q01DX Z (ip), vehicle: saline): 112 % of control | T/C (dose: 3.75 mg/kg/injection, schedule: Q01DX Z (ip), vehicle: saline): 119 % of control | T/C (dose: 7.5 mg/kg/injection, schedule: Q01DX Z (ip), vehicle: saline): 122 % of control | T/C (dose: 60.0 mg/kg/injection, schedule: Q01DX Z (ip), vehicle: saline): 233 % of control | T/C (dose: 120.0 mg/kg/injection, schedule: Q01DX Z (ip), vehicle: saline): 206 % of control | T/C (dose: 480.0 mg/kg/injection, schedule: Q01DX Z (ip), vehicle: saline): 96 % of control

O=C(O)/C=N/OCc1cc2c(cc1Cl)OCO2
T/C (dose: 100.0 mg/kg/injection, schedule: Q04DX003 (ip), vehicle: saline sonified): 95 % of control | T/C (dose: 200.0 mg/kg/injection, schedule: Q04DX003 (ip), vehicle: saline sonified): 92 % of control | T/C (dose: 400.0 mg/kg/injection, schedule: Q04DX003 (ip), vehicle: saline sonified): 94 % of control

Cc1ccc(N=Nc2c(C)nc(N)nc2C)cc1
T/C [4]: 97 % of control | T/C [5]: 91 % of control

CN1CC(C)(C)C(O)c2ccccc21 (stereo not drawn)
T/C (dose: 25.0 mg/kg/injection, schedule: Q04DX002 (ip), vehicle: other): 100 % of control | T/C (dose: 50.0 mg/kg/injection, schedule: Q04DX002 (ip), vehicle: other): 90 % of control | T/C (dose: 100.0 mg/kg/injection, schedule: Q04DX002 (ip), vehicle: other): 107 % of control

CN(C)c1ccc(C(C#N)(c2ccc(N(C)C)cc2)c2ccc(N(C)C)cc2)cc1
T/C [6]: 95 % of control | T/C [7]: 103 % of control | T/C [8]: 97 % of control | T/C [9]: 106 % of control | T/C [10]: 90 % of control

COc1ccc(CSC(=S)Nc2ccc(Cl)c(Cl)c2)cc1
T/C (dose: 50.0 mg/kg/injection, schedule: Q04DX003 (ip), vehicle: saline): 101 % of control | T/C [11]: 108 % of control | T/C [12]: 93 % of control

O=C1C(Cl)=C(Nc2ccc(Br)cc2)C(=O)C(Cl)=C1Nc1ccc(Br)cc1
T/C (dose: 50.0 mg/kg/injection, schedule: Q01DX001 (ip), vehicle: carboxymethylcellulose (CMC)): 92 % of control | T/C [13]: 92 % of control | T/C [1]: 98 % of control | T/C [14]: 86 % of control | T/C [2]: 95 % of control | T/C [15]: 90 % of control | T/C [3]: 103 % of control

CCN(CC)CC(=O)NCC(CCN1CCCC1)(CC(C)C)c1cccc2ccccc12 (stereo not drawn)
T/C (dose: 100.0 mg/kg/injection, schedule: Q04DX002 (ip), vehicle: saline): 97 % of control | T/C (dose: 200.0 mg/kg/injection, schedule: Q04DX002 (ip), vehicle: saline): 94 % of control

O=Cc1ccc(OCc2ccccc2)cc1
T/C [16]: 96 % of control | T/C [17]: 96 % of control | T/C (dose: 400.0 mg/kg/injection, schedule: Q04DX002 (ip), vehicle: Klucel (hydroxypropylcellulose) (HPC)): 92 % of control

CCOC(=O)c1c(O)[nH]c(=O)c(Br)c1C
T/C [18]: 109 % of control | T/C [11]: 89 % of control | T/C [19]: 120 % of control | T/C [12]: 89 % of control | T/C [20]: 117 % of control | T/C [21]: 90 % of control

C=CC[n+]1ccccc1Br
T/C (dose: 62.0 mg/kg/injection, schedule: Q01DX015 (ip), vehicle: water): 102 % of control | T/C (dose: 125.0 mg/kg/injection, schedule: Q01DX015 (ip), vehicle: water): 106 % of control

COc1cc(N[Si](C)(C)C)nc(OC)n1
T/C [22]: 100 % of control | T/C [23]: 96 % of control | T/C [24]: 92 % of control

CC[N+]12CC=C3COC(=O)C(C)(O)C(C)(O)C(C)C(=O)OC(CC1)C32 (stereo not drawn)
T/C [22]: 92 % of control | T/C [23]: 97 % of control | T/C [24]: 92 % of control

CNC(=O)Nc1cccc2ccccc12
T/C [13]: 95 % of control | T/C (dose: 100.0 mg/kg/injection, schedule: Q01DX009 (ip), vehicle: carboxymethylcellulose (CMC)): 93 % of control and 89 % of control | T/C (dose: 100.0 mg/kg/injection, schedule: Q04DX002 (ip), vehicle: carboxymethylcellulose (CMC)): 106 % of control | T/C (dose: 100.0 mg/kg/injection, schedule: Q04DX003 (ip), vehicle: carboxymethylcellulose (CMC)): 97 % of control | T/C [14]: 101 % of control | T/C (dose: 200.0 mg/kg/injection, schedule: Q01DX009 (ip), vehicle: carboxymethylcellulose (CMC)): 98 % of control and 101 % of control | T/C (dose: 200.0 mg/kg/injection, schedule: Q04DX002 (ip), vehicle: carboxymethylcellulose (CMC)): 100 % of control | T/C (dose: 200.0 mg/kg/injection, schedule: Q04DX003 (ip), vehicle: carboxymethylcellulose (CMC)): 96 % of control | T/C [15]: 97 % of control | T/C (dose: 400.0 mg/kg/injection, schedule: Q01DX009 (ip), vehicle: carboxymethylcellulose (CMC)): 93 % of control and 86 % of control | T/C (dose: 400.0 mg/kg/injection, schedule: Q04DX002 (ip), vehicle: carboxymethylcellulose (CMC)): 99 % of control | T/C (dose: 400.0 mg/kg/injection, schedule: Q04DX003 (ip), vehicle: carboxymethylcellulose (CMC)): 97 % of control

N#C/C(=C\c1cc(Cl)cc(Cl)c1O)C(/C(C#N)=C/c1cc(Cl)cc(Cl)c1O)c1ccc2c(c1)OCO2 (stereo not drawn)
T/C (dose: 100.0 mg/kg/injection, schedule: Q01DX009 (ip), vehicle: saline with Tween-80): 97 % of control | T/C [11]: 98 % of control | T/C (dose: 200.0 mg/kg/injection, schedule: Q01DX009 (ip), vehicle: saline with Tween-80): 94 % of control | T/C [2]: 103 % of control | T/C [12]: 100 % of control | T/C (dose: 400.0 mg/kg/injection, schedule: Q01DX009 (ip), vehicle: saline with Tween-80): 89 % of control | T/C [21]: 98 % of control

NNC(=O)CNc1ccc(Br)cc1
T/C [16]: 112 % of control | T/C [17]: 106 % of control

O=Cc1ccc(O)cn1
T/C [11]: 92 % of control | T/C [12]: 87 % of control | T/C [21]: 92 % of control

COc1ccccc1NC(=O)NCCN1CCOCC1
T/C [6]: 103 % of control | T/C [8]: 95 % of control

CCOC(=O)C1=CC=CC1=O
T/C [1]: 102 % of control | T/C [2]: 95 % of control | T/C [3]: 91 % of control

CC(C)C(C)C(N)C(=O)O (stereo not drawn)
T/C (dose: 100.0 mg/kg/injection, schedule: Q01DX001 (ip), vehicle: other): 101 % of control | T/C (dose: 200.0 mg/kg/injection, schedule: Q01DX001 (ip), vehicle: other): 95 % of control | T/C (dose: 400.0 mg/kg/injection, schedule: Q01DX001 (ip), vehicle: other): 106 % of control

O=c1cc(CO)oc(C(Nc2ccccc2)c2ccccc2)c1O (stereo not drawn)
T/C [18]: 91 % of control | T/C [19]: 97 % of control | T/C [20]: 95 % of control

O=C(CNC(=O)OCc1ccccc1)NCC(=O)N1CCCC1C(=O)OCc1ccccc1 (stereo not drawn) (Cbz-Gly-Gly-[ξP]-OBn)
T/C [7]: 101 % of control | T/C [9]: 103 % of control | T/C [10]: 100 % of control

CCC1NCCc2cc(OC)c(O)cc21 (stereo not drawn)
T/C [4]: 106 % of control | T/C [5]: 100 % of control
